Results as given in patent publication US7378404B2, “8β-hydrocarbyl-substituted estratrienes for use as selective estrogens” (priority 2000, dated 2008).

Assays:
hERβ [1] = test: Relative binding affinity (RBA) to hERβ, cited from Kuiper et al.; design: species or system human; conditions: quotient of RBA hERβ / hERα
Source text: In this case, it is assumed that ERβ predominates in the rat prostates over ERα, and ERα predominates in rat uteri over ERβ.

[2] = biological target: T1, estrogen receptor of rat uteri (Rattus norvegicus, UniProt P06211); test: Competitive binding with 3H-estradiol to estrogen receptor preparation of rat uterus cytosol; conditions: for RBA Rat Uterus: Table 2
T1 construct: The preparation of rat uterus cytosol as well as the receptor test with the ER-containing cytosol; from tissue; host or cells: rat uterus cytosol
T1 sequence (P06211 1-600): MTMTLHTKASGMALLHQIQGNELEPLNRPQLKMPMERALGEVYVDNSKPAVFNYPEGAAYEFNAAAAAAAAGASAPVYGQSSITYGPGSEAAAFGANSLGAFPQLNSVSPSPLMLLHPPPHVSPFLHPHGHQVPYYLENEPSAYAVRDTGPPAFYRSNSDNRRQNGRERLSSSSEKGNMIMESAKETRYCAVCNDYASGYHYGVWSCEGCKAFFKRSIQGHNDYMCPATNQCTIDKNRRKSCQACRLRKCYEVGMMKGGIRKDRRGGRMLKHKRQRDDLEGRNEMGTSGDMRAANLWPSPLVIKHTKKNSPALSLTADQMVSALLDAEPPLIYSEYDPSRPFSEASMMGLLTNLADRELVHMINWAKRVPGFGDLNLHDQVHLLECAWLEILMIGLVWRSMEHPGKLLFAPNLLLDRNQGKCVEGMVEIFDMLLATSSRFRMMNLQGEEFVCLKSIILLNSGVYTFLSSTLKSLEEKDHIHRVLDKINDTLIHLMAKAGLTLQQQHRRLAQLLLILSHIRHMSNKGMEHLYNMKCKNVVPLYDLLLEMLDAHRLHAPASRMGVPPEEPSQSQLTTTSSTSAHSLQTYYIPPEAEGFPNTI

[3] = test system: estrogen receptor of rat prostates; test: Competitive binding with 3H-estradiol to estrogen receptor preparation of rat prostate cytosol; conditions: for Rat prost. ER (RBA): Table 1, estradiol = 100; for RBA Rat Prostate: Table 2; for binding affinity to estrogen receptor of rat prostates compared with estrogen receptor of rat uteri: rat prostate ER versus rat uterus ER
hERβ [4] = conditions: estradiol = 100; cited from earlier work
[5] = test system: 5HT2a-receptor and serotonin transporter; test: Expression of 5HT2a-receptor and serotonin transporter in ERβ-rich brain areas after one-time administration in rats; format: in vivo; conditions: rat brain
Experimental: Compared to the effect on the serotonin receptor and transporter expression, the effect on the LH-secretion is measured. […] The density of serotonin receptors and transporters is determined in brain sections using radioactive ligands, and the corresponding mRNA is determined using in situ hybridization. The method is described in the literature: G. Fink & B. E. H. Sumner 1996 Nature 383: 306; B. E. H. Sumner et al. 1999 Molecular Brain Research, in press.

Structure (SMILES)	Rat prost. ER (RBA) [3]	RBA Rat Uterus [2]	RBA Rat Prostate [3]	binding affinity to estrogen receptor of rat prostates compared with estrogen receptor of rat uteri [3]	expression of the serotonin receptor and transporter [5]	also measured
C[C@]12CC[C@H]3[C@@H](CC=C4C[C@@H](O)CC[C@@]43C)[C@@H]1CC[C@@H]2O [5-Androstenediol, reference compound]	5					ERβ/ERα (hERβ [1]): 3; Rat uterus ER (RBA) ([2]; Table 1, estradiol = 100): 0.1; prost. ER/uterus ER ([3]; ratio of RBA rat prostate ER / rat uterus ER): 50; hERβ RBA (hERβ [4]): 17
C[C@]12CC[C@@H]3c4ccc(O)cc4CC[C@@]3(C=C(F)F)[C@@H]1CC[C@@H]2O [C, 8β-(2,2-difluorovinyl)-estra-1,3,5(10)-triene-3,17β-diol]		0.9	5	higher binding affinity	increased expression	
C[C@]12CC[C@@H]3c4ccc(O)cc4CC[C@H]3[C@@H]1CC[C@H]2O [17α-Estradiol, reference compound]	1.3					
C=C[C@@]12CCc3cc(O)ccc3[C@H]1CC[C@@]1(C)[C@H]2CC[C@@H]1O [B, 8β-vinyl-estra-1,3,5(10)-triene-3,17β-diol]		0.7	63	higher binding affinity	increased expression	
C=C[C@@]12CCc3cc(O)ccc3C1=CC[C@@]1(C)[C@H]2CC[C@@H]1O [A, 8β-Vinyl-estra-1,3,5(10),9(11)-tetraene-3,17β-diol]		1	83	higher binding affinity	increased expression	
O=c1c(-c2ccc(O)cc2)coc2cc(O)cc(O)c12 [Genisteine, reference compound]	10					
CC[C@@]12CCc3cc(O)ccc3[C@H]1CC[C@@]1(C)[C@H]2CC[C@@H]1O [E, 8β-ethyl-estra-1,3,5(10)-triene-3,17β-diol]		<0.3	7	higher binding affinity	increased expression	
C[C@@]12CCc3cc(O)ccc3[C@H]1CC[C@@]1(C)[C@H]2CC[C@@H]1O [D, 8β-methyl-estra-1,3,5(10)-triene-3,17β-diol]		1.3	67	higher binding affinity	increased expression	
COc1ccc2c(c1)CC[C@]1(C)C2=CC[C@@]2(C)[C@H]1CC[C@@H]2O						melting point: 168 °C
C[C@]12CC[C@@H]3c4ccc(O)cc4CC[C@H]3[C@@H]1C[C@@H](O)[C@@H]2O [Estriol]						hERβ RBA (hERβ [4]): 21
